Where “and” joins values, the source holds several entries; their conditions need not be identical. Equal values may be shown once. Entries after “also recorded” stand apart in the source; their conditions may differ.
Legend:
[1] = test system: SARS-CoV-2; assay: microbe, parasite or virus in culture; assay type: cell-based; conditions: Severe acute respiratory syndrome coronavirus 2, Vero, 24 h; read-out: IC50, inhibition of SARS-CoV-2 infection
[2] = molecular target: SARS-CoV-2 PLpro (Severe acute respiratory syndrome coronavirus 2, UniProt P0DTD1); assay: SARS-CoV-2 PLpro activity inhibition assay; assay type: biochemical; conditions: 25 μM compound
Experimental: The fluorescence intensity was measured at 360 nm/460 nm using a Synergy H1 microplate reader (Bio-Tek). GRL061 (BPS Bioscience) was used as a positive control.
To elucidate the mode of action of PGG and PAC, the effect of those compounds on the activity of the viral protease, Mpro, was examined using SARS-CoV-2 Mpro activity assay kits.

[3] = test system: SARS-CoV; assay: microbe, parasite or virus in culture; assay type: cell-based; conditions: Severe acute respiratory syndrome coronavirus, Vero, 24 h, read-out: IC50, inhibition of SARS-CoV infection
[4] = test system: MERS-CoV; assay: microbe, parasite or virus in culture; assay type: cell-based; conditions: Middle East respiratory syndrome-related coronavirus, Vero, 24 h, read-out: IC50, inhibition of MERS-CoV infection
[5] = test system: HEK293T cells
[6] = in vitro; conditions: African green monkey
[7] = molecular target: SARS-CoV-2 Mpro (Severe acute respiratory syndrome coronavirus 2, UniProt P0DTD1); assay: SARS-CoV-2 Mpro activity inhibition assay (FRET peptide); assay type: biochemical; conditions: MBP-tagged Mpro, FRET peptide substrate, 30 min
[8] = molecular target: T1, SARS-CoV-2 RdRp (Severe acute respiratory syndrome coronavirus 2, UniProt P0DTD1); assay: cell-based; conditions: HEK293T cells, 18 h treatment; read-out: IC50, SARS-CoV-2 RdRp activity (NLuc/FLuc)
T1 construct: the RdRp expression plasmid, pCI-SARS-CoV-2 nsp12-N; expressed in transfected cells; host or cells: HEK293T

SMILES: O=C(OC[C@H]1O[C@@H](OC(=O)c2cc(O)c(O)c(O)c2)[C@H](OC(=O)c2cc(O)c(O)c(O)c2)[C@@H](OC(=O)c2cc(O)c(O)c(O)c2)[C@@H]1OC(=O)c1cc(O)c(O)c(O)c1)c1cc(O)c(O)c(O)c1 [PGG, 1,2,3,4,6-penta-O-galloyl-beta-D-glucose]
- IC50 [1]: 15 ± 0.75 µM
- Inhibition of SARS-CoV-2 PLpro activity [2]: did not inhibit; also recorded: did not affect
- IC50 [3]: 15.7 ± 1.02 µM
- IC50 [4]: 3.47 ± 0.231 µM
- Cytotoxicity or inhibition of host transcription (FLuc internal control levels) [5]: without cytotoxicity or the inhibition of host transcription
- CC50 [6]: > 50 µM

SMILES: Oc1cc(O)c2c(c1)OC(c1ccc(O)c(O)c1)C(OC1(c3ccc(O)c(O)c3)Oc3cc(O)cc(O)c3C(O)C1O)C2 (centres unmarked) [PAC, proanthocyanidin]
- IC50 [1]: 25.9 ± 0.81 µM
- IC50 [7]: 25 to 26 µM and 26 µM
- Inhibition of SARS-CoV-2 PLpro activity [2]: did not inhibit; also recorded: did not affect
- IC50 [8]: 21 ± 1.2 µM
- IC50 [3]: 15.2 ± 0.28 µM
- IC50 [4]: 4.95 ± 0.181 µM
- Cytotoxicity or inhibition of host transcription (FLuc internal control levels) [5]: without cytotoxicity or the inhibition of host transcription
- CC50 [6]: > 50 µM

Reference: paper PMC9138959 (Biomedicines, 2022)
